The test system of assay [1] is Zbtb46 in bone marrow-derived dendritic cells (BMDC). The experiment in a line: Zbtb46 mRNA expression in bone marrow-derived dendritic cells treated with tumor-derived factors. Type of assay: cell-based, mouse. The conditions noted are these: in vitro, 24 hours, vs PBS. How it is done:
FIG. 13B is a graph of Zbtb46 mRNA expression in bone marrow-derived dendritic cells (BMDC) treated with PBS, prostaglandin E2 (PGE2), vascular endothelial growth factor (VEGF), or retinoic acid (RA) for 24 hours. n≥3/group. One-way ANOVA with Dunnett's test.
(§1) Quantitative real-time reverse transcription PCR (qRT-PCR) was performed. cDNA was prepared with qScript™ CDNA SuperMix (Cat: 101414-106, VWR) according to the manufacturer's protocol. Gene expression was measured by quantitative real-time RT-PCR using primers.

Assay [2] deals with Zbtb46 in MCEC (mouse cardiac endothelial cells). The experiment in a line: Zbtb46 mRNA expression in MCEC cells treated with tumor-derived factors. The conditions noted are these: in vitro, 24 hours. The class given is cell-based. How it is done: FIG. 13A is a set of graphs of Zbtb46 mRNA expression in MCEC cells, with loading control b-Actin (left) and Gapdh (right), treated with PBS or tumor-conditioned media (TCM) for 24 hours. n≥3/group. One-way ANOVA with Dunnett's test.
as §1

`CCCCC[C@H](O)/C=C/[C@H]1[C@H](O)CC(=O)[C@@H]1C/C=C\CCCC(=O)O` [PGE2, prostaglandin E2]: in assay [1], the “Zbtb46 expression in DC” value is “downregulated”. Further, the “Zbtb46 expression in EC” value in assay [2] was “downregulated”.

In the case of VEGF, the “Zbtb46 expression in DC” value in assay [1] was “downregulated”. The “Zbtb46 expression in EC” value in assay [2] is “downregulated”.

Source of the values: patent US20240325493A1, “REGULATOR OF TUMOR CELL FUNCTIONS AND USES THEREOF” (Washington University, priority 2023, published 2024).
